Source: ChEMBL document CHEMBL6177939, “The role of silicon in drug discovery: a review” (RSC Med Chem, 2024)
≈ marks a conversion by molar mass, not a printed value.

Assays:
Acetylcholinesterase = Acetylcholinesterase (Homo sapiens, UniProt P22303); test: Binding affinity to AChE (unknown origin) using acetylthiocholine iodide as substrate assessed as inhibition constant by Ellman's method
[1] = Acute toxicity in ip dosed Sprague-Dawley rat assessed as lethal dose; format: organism-based; conditions: in vivo
[2] = In vivo inhibition of AChE activity in Sprague-Dawley rat brain assessed as effective dose; format: functional
Histone deacetylase 5 = Histone deacetylase 5 (Homo sapiens, UniProt Q9UQL6); test: Inhibition of human recombinant HDAC5 using Ac-Leu-Gly-Lys(Tfa)-AMC as substrate incubated for 30 mins by EnSpire plate reader analysis
Histone deacetylase 4 = Histone deacetylase 4 (Homo sapiens, UniProt P56524); test: Inhibition of human recombinant HDAC4 using Ac-Leu-Gly-Lys(Tfa)-AMC as substrate incubated for 30 mins by EnSpire plate reader analysis
[3] = molecular target: Protein deacetylase HDAC6 (Homo sapiens, UniProt Q9UBN7); test: Inhibition of human recombinant HDAC6 using Ac-Leu-Gly-Lys(Ac)-AMC as substrate incubated for 30 mins by EnSpire plate reader analysis
Histone deacetylase 1 = Histone deacetylase 1 (Homo sapiens, UniProt Q13547); test: Inhibition of human recombinant HDAC1 using Ac-Leu-Gly-Lys(Ac)-AMC as substrate incubated for 30 mins by EnSpire plate reader analysis
Histone deacetylase 2 = Histone deacetylase 2 (Homo sapiens, UniProt Q92769)
Interstitial collagenase = Interstitial collagenase (Homo sapiens, UniProt P03956); test: Inhibition of MMP-1 (unknown origin)
Mus musculus = test: Antiinflammatory activity against carrageenin-induced paw edema AKR mouse model assessed as inhibition of CPE at 0.01 micromol/kg, ip relative to control; format: functional; design: scale not given: the % may be the effect or the level left; conditions: dose 0.01 µmol/kg
[4] = Inhibition of soya bean lipoxygenase; design: species or system Glycine max
Enterococcus durans [5] = test: Antibacterial activity against Enterococcus durans B-603 (all Russian collections of micro-organism) assessed as reduction in bacterial growth incubated for 24 hrs by broth micro-dilution method; format: functional
Bacillus subtilis [6] = test: Antibacterial activity against Bacillus subtilis B-407 (all Russian collections of micro-organism) assessed as reduction in bacterial growth incubated for 24 hrs by broth micro-dilution method; format: functional
[7] = Antiproliferative activity against human WHCO1 cells assessed as reduction in cell viability incubated for 48 hrs by MTT assay; format: functional, cell-based; conditions: WHCO1, 48 h
Plasmodium falciparum [8] = test: Antimalarial activity against […] Plasmodium falciparum Dd2 assessed as reduction in parasite growth; format: functional, organism-based
Plasmodium falciparum [9] = test: Antimalarial activity against chloroquine-sensitive Plasmodium falciparum NF54 assessed as reduction in parasite growth; format: functional, organism-based
Bel-7402 = test: Cytotoxicity against human Bel-7402 cells assessed as inhibition of cell growth at 5 ug/ml relative to control; format: functional
HCT-8 = test: Cytotoxicity against human HCT-8 cells assessed as inhibition of cell growth at 5 ug/ml relative to control; format: functional
A549 = test: Antiproliferative activity against human A549 cells; format: functional, cell-based
HepG2 = test: Antiproliferative activity against human HepG2 cells; format: functional, cell-based
Tetranychus cinnabarinus = test: Toxicity in Tetranychus cinnabarinus assessed as lethal dose; format: organism-based
Escherichia coli [10] = test: Antibacterial activity against Escherichia coli B-1238 (all Russian collections of micro-organism) assessed as reduction in bacterial growth by broth micro-dilution method; format: functional
MDA-MB-435 [11] = test: Antiproliferative activity against human MDA-MB-435 cells assessed as reduction in cell viability incubated for 24 hrs by MTT assay; format: functional, cell-based; conditions: MDA-MB-435, 24 h
HT-29 = test: Antiproliferative activity against human HT-29 cells assessed as reduction in cell viability incubated for 24 hrs by MTT assay; format: functional, cell-based; conditions: HT-29, 24 h
HeLa [12] = test: Antiproliferative activity against human Hela cells assessed as reduction in cell viability incubated for 24 hrs by MTT assay; format: functional, cell-based
[13] = molecular target: Human immunodeficiency virus type 1 reverse transcriptase (Human immunodeficiency virus 1, UniProt Q72547); test: Inhibition of recombinant HIV-1 reverse transcriptase
[14] = tested on: Human immunodeficiency virus 1; test: Antiviral activity against HIV-1 IIIB infected in human MT2 cells assessed as reduction in virus-induced cytopathic effect incubated for 4 days by spectrophotometric based MTT assay; format: functional, organism-based; conditions: Human immunodeficiency virus 1, IIIB, MT2, 96 h
Penicillium chrysogenum = test: Antifungal activity against Penicillium chrysogenum ATCC 20044 assessed as reduction in fungal growth; format: functional
Fusarium solani = test: Antifungal activity against Fusarium solani ATCC 20327 assessed as reduction in fungal growth; format: functional
Aspergillus fumigatus = test: Antifungal activity against Aspergillus fumigatus ATCC 66567 assessed as reduction in fungal growth; format: functional
Bacillus subtilis [15] = test: Antibacterial activity against Bacillus subtilis; format: functional
Escherichia coli [16] = test: Antibacterial activity against Escherichia coli; format: functional
Pseudomonas aeruginosa = test: Antibacterial activity against Pseudomonas aeruginosa PAO1 assessed as reduction in bacterial growth by broth micro-dilution method; format: functional
[17] = tested on: Staphylococcus epidermidis; test: Antibacterial activity against methicillin-resistant Staphylococcus epidermidis 3382 assessed as reduction in bacterial cell growth by broth micro-dilution method; format: functional
Staphylococcus aureus = test: Antibacterial activity against methicillin-resistant Staphylococcus aureus assessed as reduction in bacterial cell growth by broth micro-dilution method; format: functional
Bacillus subtilis [18] = test: Antibacterial activity against Bacillus subtilis B-407 (all Russian collections of micro-organism) assessed as reduction in bacterial growth by broth micro-dilution method; format: functional
Enterococcus durans [19] = test: Antibacterial activity against Enterococcus durans B-603 (all Russian collections of micro-organism) assessed as reduction in bacterial growth by broth micro-dilution method; format: functional
Giardia intestinalis = test: Antiparasitic activity against Giardia intestinalis assessed as reduction in parasite growth incubated for 24 hrs by MTT assay; format: functional, organism-based; conditions: Giardia duodenalis
Trichomonas vaginalis = test: Antiparasitic activity against Trichomonas vaginalis assessed as reduction in parasite growth measured for 24 hrs by MTT assay; format: functional, organism-based
[20] = tested on: Human immunodeficiency virus 1; test: Antiviral activity against HIV-1 infected in human MT4 cells; format: functional, organism-based; conditions: Human immunodeficiency virus 1, MT4
[21] = molecular target: T1, Angiotensin-converting enzyme (Homo sapiens, UniProt P12821); test: Binding affinity to ACE (unknown origin) assessed as inhibition constant
HeLa [22] = test: Growth inhibition of human HeLa cells measured for 48 hrs by SRB assay; format: functional
WiDr = test: Growth inhibition of human WiDr cells measured for 48 hrs by SRB assay; format: functional
T47D = test: Growth inhibition of human T47D cells measured for 48 hrs by SRB assay; format: functional
[23] = molecular target: T1, Angiotensin-converting enzyme; test: Inhibition of ACE (unknown origin) using Hip-His-Leu-OH peptide as substrate by fluorimetric analysis
MDA-MB-435 [24] = test: Growth inhibition of human MDA-MB-435 cells measured for 48 hrs by SRB assay; format: functional
MDA-MB-435 [25] = test: Cytotoxicity against human MDA-MB-435 cells assessed as reduction in cell viability incubated for 48 hrs by SRB assay; format: functional, cell-based; conditions: MDA-MB-435, 48 h
COLO 320 = test: Antiproliferative activity against human COLO 320 cells assessed as reduction in cell growth incubated for 24 hrs by MTT assay; format: functional, cell-based; conditions: COLO 320, 24 h
COLO 205 = test: Antiproliferative activity against human COLO 205 cells assessed as reduction in cell growth incubated for 24 hrs by MTT assay; format: functional, cell-based; conditions: COLO 205, 24 h
A2780 = test: Antiproliferative activity against human A2780 cells assessed as reduction in cell growth incubated for 24 hrs by MTT assay; format: functional, cell-based; conditions: A2780, 24 h

T1 sequence (P12821 whole entry): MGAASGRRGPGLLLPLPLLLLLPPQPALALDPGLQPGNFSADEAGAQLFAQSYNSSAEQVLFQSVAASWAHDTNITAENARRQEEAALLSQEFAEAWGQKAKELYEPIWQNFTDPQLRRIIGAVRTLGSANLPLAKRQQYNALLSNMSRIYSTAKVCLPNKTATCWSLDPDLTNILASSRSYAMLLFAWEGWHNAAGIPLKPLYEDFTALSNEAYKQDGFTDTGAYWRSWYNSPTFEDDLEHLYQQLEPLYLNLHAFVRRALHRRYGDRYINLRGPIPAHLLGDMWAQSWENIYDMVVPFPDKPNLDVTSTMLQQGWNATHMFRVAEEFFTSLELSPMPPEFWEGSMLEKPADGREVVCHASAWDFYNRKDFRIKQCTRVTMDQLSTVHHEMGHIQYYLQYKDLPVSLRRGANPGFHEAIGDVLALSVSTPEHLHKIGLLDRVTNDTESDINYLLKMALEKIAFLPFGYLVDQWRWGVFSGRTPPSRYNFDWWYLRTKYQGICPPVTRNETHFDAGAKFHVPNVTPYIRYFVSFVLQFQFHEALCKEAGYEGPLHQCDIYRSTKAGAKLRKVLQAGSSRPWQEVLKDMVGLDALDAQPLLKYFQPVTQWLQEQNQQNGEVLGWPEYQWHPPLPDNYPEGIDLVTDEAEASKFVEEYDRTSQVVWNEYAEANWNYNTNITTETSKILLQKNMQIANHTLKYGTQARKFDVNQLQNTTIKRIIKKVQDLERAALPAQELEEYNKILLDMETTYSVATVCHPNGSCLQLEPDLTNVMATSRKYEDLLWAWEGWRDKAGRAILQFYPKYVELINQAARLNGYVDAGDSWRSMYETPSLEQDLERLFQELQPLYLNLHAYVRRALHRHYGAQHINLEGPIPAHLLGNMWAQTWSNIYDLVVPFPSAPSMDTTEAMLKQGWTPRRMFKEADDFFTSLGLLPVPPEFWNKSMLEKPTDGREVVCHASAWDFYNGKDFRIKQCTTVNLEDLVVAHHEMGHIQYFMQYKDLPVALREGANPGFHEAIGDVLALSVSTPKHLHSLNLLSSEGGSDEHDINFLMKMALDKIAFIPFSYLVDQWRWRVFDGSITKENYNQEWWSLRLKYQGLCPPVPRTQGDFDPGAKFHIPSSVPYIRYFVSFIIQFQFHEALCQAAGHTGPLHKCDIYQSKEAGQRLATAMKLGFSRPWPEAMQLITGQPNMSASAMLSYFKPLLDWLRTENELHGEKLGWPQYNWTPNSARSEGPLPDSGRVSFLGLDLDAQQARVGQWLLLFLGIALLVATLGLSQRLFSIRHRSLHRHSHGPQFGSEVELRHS
Sequence of Histone deacetylase 2 (Q92769 whole entry): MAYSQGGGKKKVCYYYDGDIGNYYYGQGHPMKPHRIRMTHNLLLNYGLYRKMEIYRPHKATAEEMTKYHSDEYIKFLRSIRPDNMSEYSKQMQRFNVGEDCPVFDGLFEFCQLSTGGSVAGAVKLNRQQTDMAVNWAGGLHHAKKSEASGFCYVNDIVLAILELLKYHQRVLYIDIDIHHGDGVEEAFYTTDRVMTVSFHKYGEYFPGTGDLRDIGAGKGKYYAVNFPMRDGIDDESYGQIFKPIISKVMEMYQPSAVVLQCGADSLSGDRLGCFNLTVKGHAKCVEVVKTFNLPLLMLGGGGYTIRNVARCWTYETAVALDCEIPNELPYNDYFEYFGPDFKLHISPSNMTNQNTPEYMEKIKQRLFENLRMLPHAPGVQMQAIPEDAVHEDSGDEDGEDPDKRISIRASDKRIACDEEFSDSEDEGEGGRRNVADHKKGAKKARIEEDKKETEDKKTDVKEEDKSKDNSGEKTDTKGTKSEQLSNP
Sequence of Acetylcholinesterase (P22303 whole entry): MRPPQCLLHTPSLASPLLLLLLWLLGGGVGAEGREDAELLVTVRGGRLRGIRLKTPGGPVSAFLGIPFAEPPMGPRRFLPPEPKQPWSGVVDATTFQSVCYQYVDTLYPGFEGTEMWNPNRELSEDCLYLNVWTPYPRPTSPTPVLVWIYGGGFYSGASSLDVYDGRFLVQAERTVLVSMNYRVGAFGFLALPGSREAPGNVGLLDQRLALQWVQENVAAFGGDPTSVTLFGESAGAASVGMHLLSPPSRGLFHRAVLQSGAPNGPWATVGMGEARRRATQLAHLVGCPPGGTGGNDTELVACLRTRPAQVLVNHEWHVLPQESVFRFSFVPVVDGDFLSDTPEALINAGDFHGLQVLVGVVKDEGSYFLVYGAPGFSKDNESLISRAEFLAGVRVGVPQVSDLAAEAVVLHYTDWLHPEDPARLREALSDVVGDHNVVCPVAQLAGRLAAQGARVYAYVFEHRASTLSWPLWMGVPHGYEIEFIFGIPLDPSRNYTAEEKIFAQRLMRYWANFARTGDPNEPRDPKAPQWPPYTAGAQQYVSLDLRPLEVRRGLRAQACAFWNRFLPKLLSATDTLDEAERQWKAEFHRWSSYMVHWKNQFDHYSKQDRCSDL
Sequence of Protein deacetylase HDAC6 (Q9UBN7 whole entry): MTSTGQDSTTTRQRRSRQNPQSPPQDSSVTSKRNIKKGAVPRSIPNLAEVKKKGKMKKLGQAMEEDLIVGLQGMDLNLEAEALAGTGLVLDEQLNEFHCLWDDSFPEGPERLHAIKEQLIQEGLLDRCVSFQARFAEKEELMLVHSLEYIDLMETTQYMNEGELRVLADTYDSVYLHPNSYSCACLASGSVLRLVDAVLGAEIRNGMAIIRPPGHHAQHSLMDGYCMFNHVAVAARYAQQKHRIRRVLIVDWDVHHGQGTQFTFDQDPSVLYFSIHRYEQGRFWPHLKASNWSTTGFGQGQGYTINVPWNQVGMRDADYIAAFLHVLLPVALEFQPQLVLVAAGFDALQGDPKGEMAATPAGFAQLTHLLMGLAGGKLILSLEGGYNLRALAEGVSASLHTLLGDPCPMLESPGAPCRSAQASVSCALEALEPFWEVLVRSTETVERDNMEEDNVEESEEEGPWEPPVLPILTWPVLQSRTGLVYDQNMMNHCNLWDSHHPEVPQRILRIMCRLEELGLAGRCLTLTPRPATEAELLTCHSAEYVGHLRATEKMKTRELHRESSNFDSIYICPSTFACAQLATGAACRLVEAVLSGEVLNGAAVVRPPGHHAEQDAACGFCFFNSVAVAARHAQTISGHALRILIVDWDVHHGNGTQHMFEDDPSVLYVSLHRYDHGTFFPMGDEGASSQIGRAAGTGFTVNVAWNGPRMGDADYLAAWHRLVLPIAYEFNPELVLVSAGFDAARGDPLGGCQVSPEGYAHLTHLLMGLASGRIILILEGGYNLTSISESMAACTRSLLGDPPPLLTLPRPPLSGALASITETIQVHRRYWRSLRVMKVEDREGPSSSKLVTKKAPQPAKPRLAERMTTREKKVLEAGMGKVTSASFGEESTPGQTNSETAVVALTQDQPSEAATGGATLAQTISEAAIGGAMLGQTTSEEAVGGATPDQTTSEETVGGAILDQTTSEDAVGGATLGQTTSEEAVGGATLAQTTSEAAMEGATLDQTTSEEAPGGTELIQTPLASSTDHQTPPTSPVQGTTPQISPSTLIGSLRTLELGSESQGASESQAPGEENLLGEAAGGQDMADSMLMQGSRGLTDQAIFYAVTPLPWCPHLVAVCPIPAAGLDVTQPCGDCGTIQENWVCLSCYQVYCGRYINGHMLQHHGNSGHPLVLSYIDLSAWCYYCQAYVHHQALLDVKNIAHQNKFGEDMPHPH
Sequence of Histone deacetylase 5 (Q9UQL6 whole entry): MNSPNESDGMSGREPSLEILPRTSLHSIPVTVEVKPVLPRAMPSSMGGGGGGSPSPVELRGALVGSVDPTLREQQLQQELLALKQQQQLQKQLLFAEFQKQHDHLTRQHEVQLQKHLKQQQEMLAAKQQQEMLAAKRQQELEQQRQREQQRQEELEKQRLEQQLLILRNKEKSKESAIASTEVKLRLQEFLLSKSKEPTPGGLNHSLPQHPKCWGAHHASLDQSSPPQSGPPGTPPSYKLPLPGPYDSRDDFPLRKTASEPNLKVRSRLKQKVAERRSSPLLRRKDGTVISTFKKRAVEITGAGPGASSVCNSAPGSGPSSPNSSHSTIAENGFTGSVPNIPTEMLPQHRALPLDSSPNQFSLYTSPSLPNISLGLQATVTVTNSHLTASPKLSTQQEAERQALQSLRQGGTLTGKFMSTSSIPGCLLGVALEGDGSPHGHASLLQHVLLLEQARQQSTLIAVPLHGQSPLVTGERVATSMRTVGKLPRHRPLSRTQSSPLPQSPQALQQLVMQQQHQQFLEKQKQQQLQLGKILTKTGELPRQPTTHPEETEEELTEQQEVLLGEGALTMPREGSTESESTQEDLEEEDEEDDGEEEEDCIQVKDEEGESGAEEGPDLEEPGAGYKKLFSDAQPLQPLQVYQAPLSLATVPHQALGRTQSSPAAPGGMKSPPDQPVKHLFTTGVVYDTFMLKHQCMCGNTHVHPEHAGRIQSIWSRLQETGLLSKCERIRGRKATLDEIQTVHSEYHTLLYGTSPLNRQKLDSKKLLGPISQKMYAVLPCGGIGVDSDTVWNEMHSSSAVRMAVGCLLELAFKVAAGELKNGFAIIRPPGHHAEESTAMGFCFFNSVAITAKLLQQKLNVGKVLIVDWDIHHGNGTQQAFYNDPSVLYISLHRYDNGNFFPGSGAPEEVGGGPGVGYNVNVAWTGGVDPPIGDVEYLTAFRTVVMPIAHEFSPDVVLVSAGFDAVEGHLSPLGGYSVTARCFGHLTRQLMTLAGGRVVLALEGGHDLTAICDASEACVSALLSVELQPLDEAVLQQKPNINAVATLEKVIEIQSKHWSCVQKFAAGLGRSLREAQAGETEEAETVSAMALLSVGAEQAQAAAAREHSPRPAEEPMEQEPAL

C[Si](C)(C)c1cccc(C(=O)C(F)(F)F)c1
Ki (Acetylcholinesterase): 0.047 nM
LD50 [1]: 180 mg/kg
ED50 [2]: 2.5 mg/kg

C[Si](O)(O)CCCCCCC(=O)Nc1ccccc1
IC50 (Histone deacetylase 5): 600 nM
IC50 (Histone deacetylase 4): 600 nM
IC50 [3]: 600 nM
IC50 (Histone deacetylase 1): 600 nM
IC50 (Histone deacetylase 2): 600 nM

C[Si](C)(C)n1c(=S)c(=P(c2ccccc2)(c2ccccc2)c2ccccc2)/c1=N/c1ccccc1
IC50 (Interstitial collagenase): ~41 nM

C[Si](C)(C)CCC[n+]1ccsc1N.[I-]
Activity (Mus musculus): 55%
IC50 [4]: 10 nM

COc1ccc(-c2cc(CNCCC[Si-]345OCC[N+]3(CCO4)CCO5)on2)cc1 (stereo not given)
MIC (Enterococcus durans [5]): 12.5 µg/mL (≈ 29.8 µM)
MIC (Bacillus subtilis [6]): 6.2 µg/mL (≈ 14.8 µM)

C[Si](C)(C)CNc1ccnc2cc(Cl)ccc12
IC50 [7]: 4410 nM
IC50 (Plasmodium falciparum [8]): 525 nM
IC50 (Plasmodium falciparum [9]): 248 nM

CC(C)OP(=O)(NCCC[Si-]123OCC[N+]1(CCO2)CCO3)OCCn1c(=O)c(F)cn(C2CCCO2)c1=O (stereo not given)
inhibition at 5 µg/mL (Bel-7402): 29.3%
inhibition at 5 µg/mL (HCT-8): 29.3%

COc1ccc([Si](C)(C)[C@@H]2[C@@H](CCn3cc(CCO)nn3)O[C@]3(C(=O)N4c5c(ccc(OC)c53)C(C)=CC4(C)C)[C@H]2C)cc1
EC50 (A549): 42800 nM
EC50 (HepG2): 32500 nM

C/C(=C(\OC(=O)C(C)(C)C)c1c(C)c(C)nn1C)c1ccc([Si](C)(C)C)cc1
LC50 (Tetranychus cinnabarinus): 0.062 ng/mL (≈ 0.000156 µM)

O=C(NCCC[Si-]123OCC[N+]1(CCO2)CCO3)c1cc2c([nH]1)CCCC2 (stereo not given)
MIC (Escherichia coli [10]): 62.5 µg/mL (≈ 165 µM)

CC1C[N+]23CC(C)O[Si-]2(CCC/N=C/c2cccc([N+](=O)[O-])c2)(O1)OC(C)C3 (stereo not given)
IC50 (MDA-MB-435 [11]): 12.5 µg/mL (≈ 30.7 µM)
IC50 (HT-29): 12.3 µg/mL (≈ 30.2 µM)
IC50 (HeLa [12]): 11.8 µg/mL (≈ 29 µM)

C[Si](O)(O[Si](C)(CCCn1cnc2c(N)ncnc21)c1ccccc1)c1ccccc1 (stereo not given)
IC50 [13]: 6000 nM
IC50 [14]: 10000 nM

COc1ccc(O)c(/C=N/CCC[Si-]234OCC[N+]2(CCO3)CCO4)c1 (stereo not given)
MIC (Penicillium chrysogenum): 0.08 µg/mL (≈ 0.218 µM)
MIC (Fusarium solani): 0.08 µg/mL (≈ 0.218 µM)
MIC (Aspergillus fumigatus): 0.08 µg/mL (≈ 0.218 µM)

CCN(CC)CC.S=C(S)NCCC[Si-]123OCC[N+]1(CCO2)CCO3 (stereo not given)
MIC (Bacillus subtilis [15]): 0.8 µg/mL
MIC (Escherichia coli [16]): 0.765 µg/mL

Fc1ccc(/N=C/c2c(OCc3cn(CCC[Si-]456OCC[N+]4(CCO5)CCO6)nn3)ccc3ccccc23)cc1 (stereo not given)
MIC (Pseudomonas aeruginosa): 13.2 µg/mL (≈ 23.6 µM)
MIC [17]: 3.25 µg/mL (≈ 5.79 µM)
MIC (Staphylococcus aureus): 3.25 µg/mL (≈ 5.79 µM)

O=C(NCCC[Si-]123OCC[N+]1(CCO2)CCO3)c1ccc[nH]1 (stereo not given)
MIC (Bacillus subtilis [18]): 6.2 µg/mL (≈ 19.1 µM)
MIC (Enterococcus durans [19]): 3.1 µg/mL (≈ 9.53 µM)

CC1C[N+]23CC(C)O[Si-]2(CCC/N=C/c2ccc4c5c6c(ccc25)C=CCC6=CC4)(O1)OC(C)C3 (stereo not given)
IC50 (Giardia intestinalis): 53300 nM
IC50 (Trichomonas vaginalis): 1750 nM

Cc1cccc(C(O)c2c(C(C)C)c(=O)[nH]c(=O)n2COCc2ccccc2)c1 (stereo not given)
EC50 [20]: 200 nM

CC(C)C[C@H](C[Si](O)(O)CNC(=O)CCc1ccccc1)C(=O)NC(=O)N[C@@H](CC(C)C)C(=O)O
Ki [21]: 10 nM

CC(C)(C)[Si](Oc1ccc2oc(=O)ccc2c1)(c1ccccc1)c1ccccc1
GI50 (HeLa [22]): 24100 nM
GI50 (WiDr): 32200 nM
GI50 (T47D): 26600 nM

CC(CS)C(=O)N1C[Si](C)(C)C[C@H]1C(=O)O (mixture of isomers)
IC50 [23]: 43 nM

CC[C@@]1(O)C(=O)OCc2c1cc1n(c2=O)Cc2c-1nc1ccc(O)cc1c2[Si](C)(C)C(C)(C)C [AR-67]
GI50 (MDA-MB-435 [24]): 21 nM
IC50 (MDA-MB-435 [25]): 14 nM

CC[C@@]1(O)C(=O)OCc2c1cc1n(c2=O)Cc2c-1nc1ccccc1c2CC[Si](C)(C)C [COSITECAN]
IC50 (COLO 320): 1.5 nM
IC50 (COLO 205): 1.5 nM
IC50 (A2780): 1.8 nM
